# Source: ChEMBL document CHEMBL3779866, “Synthetic approaches, structure activity relationship and biological applications for pharmacologically attractive pyrazole/pyrazoline-thiazolidine-based hybrids” (Eur J Med Chem, 2016)
# Assays:
# CCRF-CEM = test: Cytotoxicity against human CCRF-CEM cells assessed as growth inhibition after 48 hrs by SRB assay; type: functional
# [1] = Cytotoxicity against human RPMI8226 cells assessed as growth inhibition after 48 hrs by SRB assay; type: functional; details: RPMI-8226, 48 h
# EKVX = test: Cytotoxicity against human EKVX cells assessed as growth inhibition after 48 hrs by SRB assay; type: functional
# NCI-H522 = test: Cytotoxicity against human NCI-H522 cells assessed as growth inhibition after 48 hrs by SRB assay; type: functional; details: NCI-H522, 48 h
# [2] = Cytotoxicity against human HOP92 cells assessed as growth inhibition after 48 hrs by SRB assay; type: functional; details: HOP-92, 48 h
# Candida albicans [3] = test: Antimicrobial activity against Candida albicans ATCC 10231 by serial two-fold broth dilution method; type: functional
# Aspergillus fumigatus = test: Antimicrobial activity against Aspergillus fumigatus HIC6094 by serial two-fold broth dilution method; type: functional
# Trichophyton rubrum = test: Antimicrobial activity against Trichophyton rubrum IFO9185 by serial two-fold broth dilution method; type: functional
# [4] = test system: Trichophyton mentagrophytes; test: Antimicrobial activity against Trichophyton mentagrophytes IFO40996 by serial two-fold broth dilution method; type: functional
# Candida albicans [5] = test: Antifungal activity against Candida albicans after 24 to 48 hrs by two-fold microdilution susceptibility assay; type: functional
# Bacillus subtilis = test: Antimicrobial activity against Bacillus subtilis MTCC 441 after 24 hrs by serial two-fold broth dilution method; type: functional; details: MTCC 441, 24 h
# [6] = test system: Lysinibacillus sphaericus; test: Antimicrobial activity against Bacillus sphaericus MTCC 11 after 24 hrs by serial two-fold broth dilution method; type: functional; details: MTCC 11, 24 h
# Staphylococcus aureus = test: Antimicrobial activity against Staphylococcus aureus MTCC 96 after 24 hrs by serial two-fold broth dilution method; type: functional; details: MTCC 96, 24 h
# Pseudomonas aeruginosa = test: Antimicrobial activity against Pseudomonas aeruginosa MTCC 741 after 24 hrs by serial two-fold broth dilution method; type: functional; details: MTCC 741, 24 h
# Klebsiella aerogenes = test: Antimicrobial activity against Klebsiella aerogenes MTCC 39 after 24 hrs by serial two-fold broth dilution method; type: functional; details: MTCC 39, 24 h
# [7] = test system: Chromobacterium violaceum; test: Antimicrobial activity against Chromobacterium violaceum MTCC 2625 after 24 hrs by serial two-fold broth dilution method; type: functional; details: MTCC 2625, 24 h
# Escherichia coli [8] = test: Antimicrobial activity against Escherichia coli after 24 hrs by serial dilution method; type: functional
# Leishmania donovani = test: Antiparasitic activity against Leishmania donovani by cell based assay; type: functional, organism-based
# Plasmodium falciparum = test: Antiparasitic activity against Plasmodium falciparum by cell based assay; type: functional, organism-based
# HeLa = test: Cytotoxicity against human HeLa cells assessed as growth inhibition after 48 hrs by SRB assay; type: functional
# Escherichia coli [9] = test: Antibacterial activity against Escherichia coli ATCC 25922 after 24 to 48 hrs by two-fold microdilution susceptibility assay; type: functional
# HepG2 = test: Cytotoxicity against human HepG2 cells assessed as growth inhibition after 48 hrs by SRB assay; type: functional; details: HepG2, 48 h
# Rattus norvegicus = test: Antiinflammatory activity against albino rat assessed as inhibition of carrageenin induced paw edema at 100 mg/kg, po administered for 1 hr followed by carrageenin challenge measured after 4 hrs; type: functional
smiles,measurement,setting,value
O=C1NC(=S)S/C1=C\c1cn(-c2ccccc2)nc1-c1ccccc1,GI50,CCRF-CEM,2500 nM
same,GI50,[1],2520 nM
same,GI50,EKVX,3.03 µM
same,GI50,NCI-H522,2960 nM
same,GI50,[2],620 nM
same,CC50,[2]; read-out: LC50 (the source's name),> 100 µM
Cc1nn(-c2ccccc2)c(C)c1-c1cc(-c2ccc(Cl)cc2)nc(N2C(=O)CSC2c2ccco2)n1 (centres undefined),MIC,Candida albicans [3],14 µg/mL
same,MIC,Aspergillus fumigatus,14 µg/mL
same,MIC,Trichophyton rubrum,14 µg/mL
same,MIC,[4],14 µg/mL
O=C1CS/C(=N/N=C\c2cn(-c3ccccc3)nc2-c2ccc(Br)s2)N1c1ccc(Cl)cc1,MIC,Candida albicans [5],12.5 µg/mL
CC1(C)S[C@@H]2[C@H](NC(=O)Cc3ccccc3)C(=O)N2[C@H]1C(=O)O [PENICILLIN G],MIC,Bacillus subtilis,1.56 µg/mL
same,MIC,[6],1.56 µg/mL
same,MIC,Staphylococcus aureus,1.56 µg/mL
same,MIC,Pseudomonas aeruginosa,1.56 µg/mL
same,MIC,Klebsiella aerogenes,1.56 µg/mL
same,MIC,[7],1.56 µg/mL
CN(C)[C@@H]1C(O)=C(C(N)=O)C(=O)[C@@]2(O)C(O)=C3C(=O)c4c(O)cccc4[C@@](C)(O)[C@H]3C[C@@H]12 [TETRACYCLINE],MIC,Escherichia coli [8],39 µg/mL
CC(=O)OC[C@@H]1O[C@@H](N2C(=O)/C(=C/c3cn(-c4ccccc4)nc3-c3ccc(Br)cc3)SC2=S)[C@@H](OC(C)=O)[C@H](OC(C)=O)[C@@H]1OC(C)=O,MIC,Escherichia coli [8],143 µg/mL
CC1=NN(C2=NC(=O)CS2)C(c2ccccc2)C1 (centres undefined),IC50,Leishmania donovani,> 30 µg/mL
same,IC50,Plasmodium falciparum,> 5 µg/mL
Cc1ccc(N2C(=O)CSC2c2cn(-c3ccccc3)nc2-c2cc3ccccc3o2)cc1 (centres undefined),GI50,HeLa,1.2 µg/mL
Cc1ccc(N2C(=O)CS/C2=N/N=C\c2cn(-c3ccccc3)nc2-c2ccc(Br)s2)cc1,MIC,Escherichia coli [9],25 µg/mL
C(=N\Nc1nc(-c2ccc3c(c2)CCCC3)cs1)/c1cn(-c2ccccc2)nc1-c1cc2ccccc2o1,GI50,HepG2,5 µg/mL
Cc1nn(-c2ccccc2)c(C)c1-c1cc(-c2ccc(Cl)cc2)nc(N2C(=O)CSC2c2ccc(N(C)C)cc2)n1 (centres undefined),MIC,Candida albicans [3],14 µg/mL
same,MIC,Aspergillus fumigatus,14 µg/mL
same,MIC,Trichophyton rubrum,14 µg/mL
same,MIC,[4],14 µg/mL
CC(C(=O)O)c1cccc(C(=O)c2ccccc2)c1 (centres undefined) [KETOPROFEN],inhibition in vivo at 100 mg/kg,Rattus norvegicus,63%
